These results are taken from patent US20220054588A1, “USE OF SAP FOR THE TREATMENT OF EUROTIOMYCETES FUNGI INFECTIONS” (HUMANITAS MIRASOLE S.P.A., priority 2018, published 2022).

The test system of one test is A. fumigatus conidia. The test is described as follows: Resazurin-based fungal viability assay. The arrangement: species or system Aspergillus fumigatus. Conditions: for microbicidal activity: 1 min, conidia pre-opsonised with human SAP. The method, then:
FIG. 12 depicts the therapeutic efficacy of SAP in treatment of invasive aspergillosis. a) b) c) survival of transiently immunosuppressed wt mice after injection with the indicated doses of AF conidia. The curve of untreated mice (n=3) with cyclophosphamide is also shown (a). Human SAP (4 mg/Kg) was injected at 2 h and 24 h after infection. a) AF 5.10^7, n=17; AF 5.10^7+SAP, n=15; b) AF 1.10^7, n=7; AF 1.10^7+SAP, n=8; c) AF 5.10^6, n=8; AF 5.10^6+SAP, n=10.***, P<0.005 SAP-treated vs. saline (Mantel-Cox test). One-way ANOVA, P<0.0001. d) lung CFU in mice treated with cyclophosphamide and infected with 1.10^7 AF conidia.*, P<0.05 (Mann-Whitney test). e) quantitative analysis of AF viability performed using a resazurin-based assay. Plasma (30%) from wt and Apcs^−/− mice were incubated (1 min) with 1.5×10^5 AF conidia pre-opsonized or not with SAP. Results are mean±SD of red fluorescence (excitation/emission 535/580-610 nm) intensity of the resazurin once reduced to resorufin within viable cells. Effect of Posaconazole (POC; 1 μM) exposure is also shown. Results are mean±SEM relative to the condition without serum (grey symbols) of two experiments performed with n=10 mice/group. […] AF viability assay performed in sera depleted from complement components. Figure summarizes one experiment out of 5 also conducted with serum 10%. Mean±SD.*, P<0.05; **, P<0.01 (unpaired t-test). g) and h) FACS analysis of MAC deposition on AF conidia (1×10^7) in presence of sera depleted from complement components (e) and the effect of SAP (f). Mean±SEM of 2 experiments performed out of 4. e, f,*, P<0.05;**, P<0.01;***, P<0.005;****, P<0.001; (Mann-Whitney test).
Fungal viability assay. Effect of SAP on A. fumigatus killing was evaluated by a resazurin-based cell viability assay as described (Mantovani et al., 2010). A volume of 10 μl PBS, pH 7.4, containing 1.5×10^5 conidia eventually opsonized with human SAP (100 μg/ml per 1×10^9 conidia, 1 h at r.t.) was placed into sterile round bottom Corning® 96-well polypropylene microplate and incubated for 1 and 30 min at 37° C. with 20 μl of 10 and 30% plasma-heparin from wt and Apcs^−/− mice or human serum and different complement component-depleted sera. After incubation, plates were immediately cooled on ice and cold-centrifuged (2000 rpm, 10 min at 4° C.), and then supernatant removed. Conidia not incubated with plasma or serum were used as a negative control. Conidia treated with the fungicide drug Posaconazole (POC; 1 μM) were considered as positive control in the assay. […] After 17 h reaction at 37° C., fluorescence (excitation/emission at ≈530-560/590 nm) intensity was measured by microplate reader Synergy™ H4 (BioTek, France). Results represent ratio of fluorescence intensity values relative to those measured in negative controls. […]

Test [1] concerns complement activation on A. fumigatus conidia. The test is described as follows: Complement C3 deposition on A. fumigatus conidia and C5a formation in mouse plasma. It is filed as biochemical. Conditions: Sap-opsonised conidia. Here is the method:
FIG. 6 depicts the effect of SAP on complement activation on A. fumigatus. a) FACS analysis of plasma C3 deposition on AF conidia (1×10^7) opsonized or not with Sap. b) plasma C5a levels after incubation with AF conidia shown in a. a) and b) n=10 mouse plasma/genotype. b) representative experiment out of three performed. a) and b) Mean±SEM.*, P<0.05;**, P<0.01;***, P<0.005;****, P<0.0001 (unpaired t-test).
Complement deposition on Aspergillus fumigatus. A volume of 10 μl PBS, pH 7.4, containing 1×10^7 conidia eventually opsonized with murine SAP (100 μg/ml per 1×10^9 conidia, 1 h at r.t.) was incubated (37° C.) in round bottom wells of Corning® 96-well polypropylene microplates for the indicated time points with 20 μl mouse plasma-heparin or 20 μl human NS and complement depleted sera (diluted in PBS at 10% and 30%). Complement deposition was blocked by addition of EDTA (10 mM final concentration) and by cooling in ice. After centrifugation (2000 rpm, 10 min at 4° C.), when indicated supernatant was collected for C5a measurement by ELISA. […] Conidia were then incubated (1 h, at 4° C.) with Alexa Fluor® 488 and 647-conjugated species-specific cross-adsorbed detection antibodies (2 μg/ml; ThermoFisher Scientific-Molecular Probes) and analysed by BD FACS Canto™ II Flow Cytometer (BD Biosciences) using forward and side scatter parameters to gate on at least 8,000 conidia. […] Results were expressed as frequency of conidia showing fluorescence compared with irrelevant controls and as geometric conidia MFI.
Proteins. […] Purity of the recombinant protein was assessed by SDS-PAGE followed by silver staining. […] SAP levels were measured in mouse plasma by ELISA (DuoSet ELISA; R&D Systems). Murine TNF-α, CCL2, MPO were measured by ELISA (DuoSet ELISA; R&D Systems). Murine C5a was measured either in plasma-heparin or in BALFs previously stored at −80° C. by DuoSet ELISA (R&D Systems) maintaining EDTA (10 mM) throughout the assay in order to stop the activation of the complement cascade.

In the case of “human native SAP: Native SAP from human serum purchased by Merck-Millipore; Serum Amyloid P component, SEQ ID NO: 1”, the microbicidal activity result with A. fumigatus conidia (Apcs−/− mouse plasma) and with A. fumigatus conidia (wt mouse plasma) was “increase of microbicidal activity” in each case. For the same molecule, the “SAP effect on microbicidal activity” value in the test with A. fumigatus conidia (human serum depleted of C1q) and with A. fumigatus conidia (human serum depleted of C3) was “abolished” in each case.

B1: recombinant murine SAP: recombinant murine SAP from mouse myeloma cell line NSO (R&D Systems) (protein, UniProt P12246 21-224, looked up)
Serum amyloid P-component: QTDLKRKVFVFPRESETDHVKLIPHLEKPLQNFTLCFRTYSDLSRSQSLFSYSVKGRDNELLIYKEKVGEYSLYIGQSKVTVRGMEEYLSPVHLCTTWESSSGIVEFWVNGKPWVKKSLQREYTVKAPPSIVLGQEQDNYGGGFQRSQSFVGEFSDLYMWDYVLTPQDILFVYRDSPVNPNILNWQALNYEINGYVVIRPRVWD
In the case of B1, the “in vitro C3 deposition on A. fumigatus conidia” value in test [1] (Apcs−/− and wt plasma) is recorded as “rescued or increased”. Also, the C5a formation entry in test [1] (Apcs−/− plasma, 1, 5, 10, 20 min) is on record as “rescued”; in test [1] (wt plasma), “increased”.
